Like-named read-outs stand apart in the source and are kept apart here.
How the values were obtained:
[1] = Radical protection factor (RPF) by electron spin resonance (ESR); format: physicochemical; conditions: in vitro
Text: wherein RF=(S1−S2)/S1; RC=concentration of test substance (radicals/ml); PI=concentration of active substance preparation (mg/ml); S2=signal amplitude of a solution of antioxidant. The radical protection factor is preferably 800×10^14 radicals per mg of preparation, more preferably 30,000×10^14 radicals per mg of preparation.
The radical protection factor (RPF) indicates the activity in binding free radicals by an antioxidant or radical scavenger compared to a test substance.
As set forth above, the radical protection factor (RPF) determines the activity of a substance for binding free radicals as compared with a test substance. The test substance consists of a highly reactive, semi-stable radical which reacts with all known antioxidants. Such radicals include nitroxides such as Proxo (2,2,5,5-tetramethyl-1-dihydropyrrolinoxy nitroxide), Tempol (2,2,6,6-tetramethyl-1-piperidinoxy-4-ol nitroxide), DTBN (di-tert-butyl-nitroxide) or preferably DPPH (1,1-diphenyl-2-picryl-hydrazyl).
The RPF is measured in such a way that the signal amplitude of the test radical is measured by electron spin resonance (ESR/EPR) before and after mixing with an antioxidant/radical scavenger and calculating the RPF therefrom. For a series of standard antioxidants the RPF is well-known.
Ind. […] Starting from the known concentration of test substance (here: DPPH) or the number of its free radicals (radicals per ml), a signal amplitude S1 is measured using an ESR spectrometer. Both test radical and antioxidant are dissolved in a water/alcohol solution (e.g. 0.1 M). Thereafter, the signal amplitude S2 of the antioxidant is measured. The normalized difference between the two signal amplitudes is the reduction factor RF.
The result of the radical reduction of the test substance RC×RF is normalized relative to the quantity of product input PI (mg/ml). RC is the amount of the test substance, i.e., the known number of radicals in the test substance. The radical protection factor is calculated by means of the following equation:
RPF=N×10^14[radicals per mg],
wherein N is a positive real number and RPF for simplification may be reduced to the numerical value of N. This reduction will be used in the examples of the present invention.
The radical protection factor can be determined using an ESR spectrometer (GALENUS GmbH, Berlin, Germany) and is a magnitude for characterizing products with respect to their capability of binding free radicals. The method is an in vitro method in which no individual properties of the user would influence the antioxidants.

[2] = standard antioxidants, RPF stated as well-known; cited from earlier work
[3] = radical scavenger raw materials

Compound	radical protection factor (RPF) [1, 3]	radical protection factor (RPF) [2]	also measured
O=C(/C=C/c1ccc(O)c(O)c1)O[C@H](Cc1ccc(O)c(O)c1)C(=O)O [rosmarinic acid]	36,000-68,000 ×10^14 radicals/mg		
O=C(OC[C@H]1O[C@@H](OC(=O)c2cc(O)c(O)c(OC(=O)c3cc(O)c(O)c(O)c3)c2)[C@H](OC(=O)c2cc(O)c(O)c(OC(=O)c3cc(O)c(O)c(O)c3)c2)[C@@H](OC(=O)c2cc(O)c(O)c(OC(=O)c3cc(O)c(O)c(O)c3)c2)[C@@H]1OC(=O)c1cc(O)c(O)c(OC(=O)c2cc(O)c(O)c(O)c2)c1)c1cc(O)c(O)c(OC(=O)c2cc(O)c(O)c(O)c2)c1 [tannic acid]	310,000 ×10^14 radicals/mg		
CC(=O)OC/C=C(C)/C=C/C=C(C)/C=C/C1=C(C)CCCC1(C)C [all-trans-retinol acetate]		196 ×10^14 radicals/mg	
CC1=C(/C=C/C(C)=C/C=C/C(C)=C/CO)C(C)(C)CCC1 [all-trans-retinol]		827 ×10^14 radicals/mg	
O=C1O[C@H]([C@@H](O)CO)C([O-])=C1OP(=O)([O-])[O-].[Na+].[Na+].[Na+] [sodium ascorbyl phosphate]	35,000 ×10^14 radicals/mg		
cyclodextrins			radical protection factor (RPF) ([1]; printed without unit (b55-56: RPF=N×10^14 radicals per mg, reduced to N)): 0
CC(=O)Oc1c(C)c(C)c2c(c1C)CCC(C)(CCC[C@H](C)CCC[C@H](C)CCCC(C)C)O2 (stereo partly drawn) [α-tocopheryl acetate]		about 48 ×10^14 radicals/mg	
Cc1c(C)c2c(c(C)c1O)CCC(C)(CCCC(C)CCCC(C)CCCC(C)C)O2 (racemic) [DL-α-tocopherol]		41,200 ×10^14 radicals/mg	

Source: patent US20090081285A1, “USE OF RADICAL-CAPTURING SUBSTANCES IN A TOPICAL PREPARATION FOR ANTIPYRETIC TREATMENT” (priority 2005, published 2009)
